Laboratory results taken from US6737383B1, “Herbicidal oxadiazolidines” (priority 1999, dated 2004).

Legend:
[1] = test system: bedstraw; assay: Test B pre/postemergence bedstraw; format: in vivo, Galium aparine
In short: (§1)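 Test chemicals in a non-phytotoxic solvent mixture with surfactant were sprayed preemergence onto planted seeds and postemergence onto plants 2 to 18 cm tall (1- to 4-leaf stage). After twelve to sixteen days in a greenhouse, injury was visually rated against untreated controls from 0 (no effect) to 10 (complete control).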

[2] = test system: blackgrass; assay: Test B pre/postemergence blackgrass; format: in vivo, Alopecurus myosuroides
In short: as §1

[3] = test system: surinam grass; assay: Test B pre/postemergence surinam grass; format: in vivo, Brachiaria decumbens
In short: as §1

[4] = test system: cocklebur; assay: Test B pre/postemergence cocklebur; format: in vivo, Xanthium strumarium
In short: as §1

[5] = test system: corn; assay: Test B pre/postemergence corn; format: in vivo, Zea mays
In short: as §1

[6] = test system: crabgrass; assay: Test B pre/postemergence crabgrass; format: in vivo, Digitaria sanguinalis
In short: as §1

[7] = test system: morningglory; assay: Test B pre/postemergence morningglory; format: in vivo, Ipomoea hederacea
In short: as §1

[8] = test system: pigweed; assay: Test B pre/postemergence pigweed; format: in vivo, Amaranthus retroflexus
In short: as §1

[9] = test system: rape; assay: Test B pre/postemergence rape; format: in vivo, Brassica napus
In short: as §1

[10] = test system: sugar beet; assay: Test B pre/postemergence sugar beet; format: in vivo, Beta vulgaris
In short: as §1

[11] = test system: velvetleaf; assay: Test B pre/postemergence velvetleaf; format: in vivo, Abutilon theophrasti
In short: as §1

[12] = test system: wheat; assay: Test B pre/postemergence wheat; format: in vivo, Triticum aestivum
In short: as §1

[13] = test system: wild oat; assay: Test B pre/postemergence wild oat; format: in vivo, Avena fatua
In short: as §1

[14] = test system: purple nutsedge; assay: Test B pre/postemergence purple nutsedge; format: in vivo, Cyperus rotundus
In short: as §1

[15] = test system: smallflower flatsedge; assay: Test B flood test smallflower flatsedge; format: in vivo, Cyperus difformis
In short: (§2)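 Plants were grown to the 2-leaf stage before treatment with test chemical, then held in a greenhouse for twelve to sixteen days. Injury was visually rated against untreated controls on a 0–10 scale, where 0 is no effect and 10 is complete control.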

[16] = test system: duck salad; assay: Test B flood test duck salad; format: in vivo, Heteranthera limosa
In short: as §2

[17] = Postemergence, Rate 125 g/ha, scale of 0 to 10 where 0 is no effect and 10 is complete control
[18] = Preemergence, Rate 125 g/ha, scale of 0 to 10 where 0 is no effect and 10 is complete control
[19] = Preemergence, Rate 250 g/ha, scale 0 (no effect) to 10 (complete control)
[20] = Rate 62 g/ha, Preemergence, scale 0 to 10
[21] = Rate 250 g/ha, Postemergence, scale 0 to 10, 0 is no effect, 10 is complete control
[22] = Rate 500 g/ha, Postemergence, scale 0 to 10, 0 is no effect, 10 is complete control
[23] = Rate 500 g/ha, Preemergence, scale 0 to 10 (0 no effect, 10 complete control)
[24] = Postemergence, Rate 62 g/ha, scale 0 to 10, 0 is no effect, 10 is complete control
[25] = Pre-emergence, Rate 62 g/ha, scale 0 to 10, 0 is no effect, 10 is complete control
[26] = Rate 125 g/ha, Pre-emergence section (flood test species), scale 0 to 10, 0 no effect, 10 complete control
[27] = Rate 250 g/ha, Pre-emergence (flood test species), scale 0 to 10, 0 is no effect, 10 is complete control
[28] = Rate 500 g/ha, Pre-emergence section of Table B, 0 to 10 scale (0 no effect, 10 complete control)

CC(C)N(C(=O)n1oc(=O)n(CC2=NOCCO2)c1=O)c1ccc(F)cc1F [Compound 758]
1: Plant response rating, Bedstraw [1, 18] | Wild oats plant response rating [13, 21]
5: B. signalgrass plant response rating [3, 17] | Sugarbeets plant response rating [10, 20] | Plant response rating, Velvetleaf [11, 24] | Plant response rating, Wheat [12, 18] | Wheat plant response rating [12, 19] | Wheat plant response rating [12, 21] | Wild oats plant response rating [13, 20]
2: Plant response rating, Crabgrass [6, 24] | Plant response rating, Morningglory [7, 24] | Rape plant response rating [9, 22] | Velvetleaf plant response rating [11, 20] | Wild oats plant response rating [13, 22]
9: Blackgrass plant response rating [2, 23] | Plant response rating, Crabgrass [6, 18] | Crabgrass plant response rating [6, 20] | Crabgrass plant response rating [6, 22] | Wild oats plant response rating [13, 23]
3: Bedstraw plant response rating [1, 19] | Plant response rating, Blackgrass [2, 24] | Corn plant response rating [5, 22] | Corn plant response rating [5, 23] | Crabgrass plant response rating [6, 17] | Sugarbeets plant response rating [10, 21]
8: Bedstraw plant response rating [1, 22] | Plant response rating, Blackgrass [2, 18] | Blackgrass plant response rating [2, 19] | B. signalgrass plant response rating [3, 23] | Crabgrass plant response rating [6, 21] | Morningglory plant response rating [7, 22] | Redroot pigweed plant response rating [8, 17] | Plant response rating, Redroot pigweed [8, 18] | Redroot pigweed plant response rating [8, 19] | Redroot pigweed plant response rating [8, 20] | Redroot pigweed plant response rating [8, 21] | Redroot pigweed plant response rating [8, 22] | Rape plant response rating [9, 23] | Sugarbeets plant response rating [10, 22] | Sugarbeets plant response rating [10, 23] | Plant response rating, Wild oats [13, 18] | Wild oats plant response rating [13, 19]
7: Bedstraw plant response rating [1, 17] | Bedstraw plant response rating [1, 21] | B. signalgrass plant response rating [3, 19] | B. signalgrass plant response rating [3, 22] | Plant response rating, Redroot pigweed [8, 24] | Plant response rating, Sugarbeets [10, 18] | Sugarbeets plant response rating [10, 19] | Velvetleaf plant response rating [11, 22] | Velvetleaf plant response rating [11, 23] | Wheat plant response rating [12, 23]
10: Crabgrass plant response rating [6, 19] | Crabgrass plant response rating [6, 23] | Redroot pigweed plant response rating [8, 23]
0: Bedstraw plant response rating [1, 20] | Plant response rating, Cocklebur [4, 24] | Cocklebur plant response rating [4, 17] | Plant response rating, Cocklebur [4, 18] | Cocklebur plant response rating [4, 19] | Cocklebur plant response rating [4, 20] | Cocklebur plant response rating [4, 23] | Plant response rating, Corn [5, 24] | Corn plant response rating [5, 17] | Plant response rating, Corn [5, 18] | Corn plant response rating [5, 20] | Corn plant response rating [5, 21] | Plant response rating, Morningglory [7, 18] | Morningglory plant response rating [7, 19] | Morningglory plant response rating [7, 20] | Morningglory plant response rating [7, 23] | Plant response rating, Rape [9, 24] | Rape plant response rating [9, 17] | Rape plant response rating [9, 20] | Rape plant response rating [9, 21] | Plant response rating, Sugarbeets [10, 24] | Plant response rating, Wheat [12, 24] | Plant response rating, Wild oats [13, 24] | Plant response rating, Nutsedge [14, 24] | Nutsedge plant response rating [14, 17] | Plant response rating, Nutsedge [14, 18] | Nutsedge plant response rating [14, 19] | Nutsedge plant response rating [14, 20] | Nutsedge plant response rating [14, 21] | Nutsedge plant response rating [14, 22] | S. Flatsedge plant response rating [15, 25] | S. Flatsedge plant response rating [15, 26] | S. Flatsedge plant response rating [15, 27] | S. Flatsedge plant response rating [15, 28] | Ducksalad plant response rating [16, 25] | Ducksalad plant response rating [16, 26] | Ducksalad plant response rating [16, 27] | Ducksalad plant response rating [16, 28]
6: Blackgrass plant response rating [2, 17] | Blackgrass plant response rating [2, 20] | Blackgrass plant response rating [2, 21] | Blackgrass plant response rating [2, 22] | B. signalgrass plant response rating ([3]; Preemergence, Rate 62 g/ha, scale of 0 to 10 where 0 is no effect and 10 is complete control) | Plant response rating, B. signalgrass [3, 18] | B. signalgrass plant response rating [3, 21] | Velvetleaf plant response rating [11, 21] | Wheat plant response rating [12, 22]
4: Bedstraw plant response rating [1, 23] | Plant response rating, B. signalgrass [3, 24] | Cocklebur plant response rating [4, 21] | Cocklebur plant response rating [4, 22] | Morningglory plant response rating [7, 17] | Morningglory plant response rating [7, 21] | Plant response rating, Rape [9, 18] | Rape plant response rating [9, 19] | Plant response rating, Velvetleaf [11, 18] | Velvetleaf plant response rating [11, 19] | Wheat plant response rating [12, 20]
